For experiment [1], the target named is human GABAA receptors composed of the α1β2γ2 subunits (Homo sapiens (Human), UniProt P14867+P18507+P47870). The experiment in a line: α1β2γ2 SyncroPatch automated patch clamp assay. The conditions noted are these: for EC50: HEK cells, potentiation of submaximal GABA current, clamped at −120 mV; for α1β2γ2 EMAX: peak current after GABA+compound divided by peak current after GABA alone. It is filed as cell-based. An outline of the steps: (§1)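 Whole-cell recordings in HEK cells stably expressing each receptor, held at −120 mV, pH 7.4 extracellular/pH 7.2 KF-based intracellular solution. Submaximal GABA (3-5 μM or 10 μM) applied, then GABA plus compound at 0.029-30 μM (six concentrations, n=8-12 cells). Effect = peak current ratio GABA+compound/GABA alone; EC50 and Emax from concentration means.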
A general note: In patch-clamp work, channel activity is measured electrically.

Experiment [2] concerns the target [35S]-TBPS binding, rat brain cortical membranes. The experiment can be described thus: Steroid inhibition of [35S]-TBPS binding. The conditions noted are these: 3 nM [35S]-TBPS, in the presence of 5 mM GABA. An outline of the steps:
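In the presence of […], compounds (DMSO 0.5% final) competed with 3 nM [35S]-TBPS for Sprague-Dawley rat cortical membranes, pH 7.4 phosphate buffer, 90 min, room temperature. Filtration and scintillation counting; specific binding defined by […]; IC50 and maximal inhibition fitted per experiment, averaged as mean ± SEM.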

Experiment [3] concerns the target human GABAA receptors composed of the α4β3δ subunits (Homo sapiens (Human), UniProt O14764+P28472+P48169). The experiment in a line: α4β3δ SyncroPatch automated patch clamp assay. It is filed as cell-based. The conditions noted are these: for EC50: HEK cells, potentiation of submaximal GABA current, clamped at −120 mV; for α4β3δ EMAX: peak current after GABA+compound divided by peak current after GABA alone. Summed up: as §1

Each structure is given as a SMILES string. A value given as a limit tells only on which side of the number the result lay.

Sequence of human GABAA receptors composed of the α4β3δ subunits (P48169 36-554 limits assumed): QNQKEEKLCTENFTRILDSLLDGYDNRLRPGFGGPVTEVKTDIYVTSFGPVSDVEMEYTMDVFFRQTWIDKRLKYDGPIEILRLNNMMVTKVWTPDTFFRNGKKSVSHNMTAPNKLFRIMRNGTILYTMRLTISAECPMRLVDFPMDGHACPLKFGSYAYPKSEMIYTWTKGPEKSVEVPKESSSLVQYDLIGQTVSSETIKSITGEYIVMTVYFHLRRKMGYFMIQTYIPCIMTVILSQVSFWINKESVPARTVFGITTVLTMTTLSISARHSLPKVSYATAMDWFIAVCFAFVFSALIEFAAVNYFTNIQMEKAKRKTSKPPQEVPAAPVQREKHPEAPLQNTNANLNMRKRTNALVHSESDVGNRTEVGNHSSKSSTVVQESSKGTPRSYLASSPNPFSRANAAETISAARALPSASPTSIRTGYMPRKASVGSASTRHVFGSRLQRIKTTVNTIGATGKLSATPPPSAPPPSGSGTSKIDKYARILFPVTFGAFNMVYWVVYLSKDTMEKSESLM
Sequence of human GABAA receptors composed of the α4β3δ subunits (P28472 26-473 limits assumed): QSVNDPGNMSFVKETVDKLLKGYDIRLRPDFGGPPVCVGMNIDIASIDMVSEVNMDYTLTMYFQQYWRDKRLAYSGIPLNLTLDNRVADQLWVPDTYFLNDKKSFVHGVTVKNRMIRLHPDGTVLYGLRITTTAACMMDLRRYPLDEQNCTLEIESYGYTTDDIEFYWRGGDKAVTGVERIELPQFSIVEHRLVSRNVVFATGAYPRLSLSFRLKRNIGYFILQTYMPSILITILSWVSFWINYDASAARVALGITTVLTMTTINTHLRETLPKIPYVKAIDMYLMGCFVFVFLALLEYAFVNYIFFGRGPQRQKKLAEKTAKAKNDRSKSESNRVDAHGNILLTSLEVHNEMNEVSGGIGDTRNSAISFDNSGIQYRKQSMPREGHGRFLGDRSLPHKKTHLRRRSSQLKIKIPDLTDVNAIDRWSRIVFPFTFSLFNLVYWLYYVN
Sequence of human GABAA receptors composed of the α4β3δ subunits (O14764 17-452 limits assumed): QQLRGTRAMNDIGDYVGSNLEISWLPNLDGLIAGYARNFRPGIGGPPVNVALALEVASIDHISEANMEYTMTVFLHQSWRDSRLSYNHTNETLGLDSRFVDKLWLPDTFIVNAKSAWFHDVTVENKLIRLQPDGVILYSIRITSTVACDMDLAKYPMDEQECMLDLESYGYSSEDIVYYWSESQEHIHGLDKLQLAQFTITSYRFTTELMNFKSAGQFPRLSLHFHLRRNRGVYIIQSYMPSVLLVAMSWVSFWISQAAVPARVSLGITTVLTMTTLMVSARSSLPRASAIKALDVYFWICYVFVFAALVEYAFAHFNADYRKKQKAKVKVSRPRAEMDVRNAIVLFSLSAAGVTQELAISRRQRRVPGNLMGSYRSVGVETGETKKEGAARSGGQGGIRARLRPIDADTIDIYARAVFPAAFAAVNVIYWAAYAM
Sequence of human GABAA receptors composed of the α1β2γ2 subunits (P14867 28-456 limits assumed): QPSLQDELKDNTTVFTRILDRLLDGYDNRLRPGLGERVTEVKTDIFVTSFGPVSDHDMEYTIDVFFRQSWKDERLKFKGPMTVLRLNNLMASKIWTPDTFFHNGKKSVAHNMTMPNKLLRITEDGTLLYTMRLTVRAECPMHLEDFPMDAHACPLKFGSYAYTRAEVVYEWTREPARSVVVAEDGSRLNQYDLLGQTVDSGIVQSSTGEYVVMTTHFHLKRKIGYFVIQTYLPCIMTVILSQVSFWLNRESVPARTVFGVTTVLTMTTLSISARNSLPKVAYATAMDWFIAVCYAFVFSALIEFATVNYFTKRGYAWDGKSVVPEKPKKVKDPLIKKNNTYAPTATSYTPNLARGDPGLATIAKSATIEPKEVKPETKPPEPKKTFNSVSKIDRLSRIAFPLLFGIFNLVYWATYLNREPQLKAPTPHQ
Sequence of human GABAA receptors composed of the α1β2γ2 subunits (P47870 25-512 limits assumed): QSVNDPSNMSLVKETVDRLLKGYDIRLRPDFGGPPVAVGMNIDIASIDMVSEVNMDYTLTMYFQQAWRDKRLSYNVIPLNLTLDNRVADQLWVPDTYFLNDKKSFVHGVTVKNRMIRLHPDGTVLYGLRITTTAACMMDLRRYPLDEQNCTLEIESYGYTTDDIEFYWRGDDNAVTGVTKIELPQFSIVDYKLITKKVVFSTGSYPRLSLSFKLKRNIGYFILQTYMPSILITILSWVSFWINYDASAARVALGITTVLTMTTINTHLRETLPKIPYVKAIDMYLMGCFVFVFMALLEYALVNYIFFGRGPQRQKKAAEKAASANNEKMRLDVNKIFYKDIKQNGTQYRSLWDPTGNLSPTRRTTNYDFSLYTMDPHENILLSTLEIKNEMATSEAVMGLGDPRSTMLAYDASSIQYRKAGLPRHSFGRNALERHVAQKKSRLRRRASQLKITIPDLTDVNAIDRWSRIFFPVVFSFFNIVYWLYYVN
Sequence of human GABAA receptors composed of the α1β2γ2 subunits (P18507 40-475 limits assumed): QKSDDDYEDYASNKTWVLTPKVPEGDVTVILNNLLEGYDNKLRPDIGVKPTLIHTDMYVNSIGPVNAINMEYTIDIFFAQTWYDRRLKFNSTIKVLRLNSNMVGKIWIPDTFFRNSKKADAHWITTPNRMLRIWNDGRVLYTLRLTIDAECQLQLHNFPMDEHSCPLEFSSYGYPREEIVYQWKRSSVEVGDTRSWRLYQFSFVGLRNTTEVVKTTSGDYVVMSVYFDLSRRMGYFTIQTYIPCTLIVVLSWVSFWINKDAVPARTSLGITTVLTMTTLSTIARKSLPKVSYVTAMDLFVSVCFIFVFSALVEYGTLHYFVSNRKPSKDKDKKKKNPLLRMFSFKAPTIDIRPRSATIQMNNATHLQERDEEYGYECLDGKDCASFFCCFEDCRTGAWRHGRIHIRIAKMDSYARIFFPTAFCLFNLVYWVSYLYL

In general, EC50 refers to the concentration giving half of the maximal effect. For orientation: IC50 means the concentration at which inhibition is half-maximal. As to `C[C@@H](Cc1ccc(C(F)(F)F)nc1)[C@H]1CC[C@H]2[C@@H]3CC[C@@H]4C[C@](C)(O)CC[C@@H]4[C@H]3CC[C@]12C` [Example 443], in experiment [1], the EC50 was under 200 nM and the “α1β2γ2 EMAX” value is given as “C (C indicates an Emax response ≥10)”. The IC50 in experiment [2] is under 100 nM. Besides, in experiment [3], the EC50 was under 200 nM and the “α4β3δ EMAX” value was “B (B indicates an Emax response 30 to <45)”.
For the compound `C[C@@H](Cc1nc(C(F)(F)F)cs1)[C@H]1CC[C@H]2[C@@H]3CC[C@@H]4C[C@](C)(O)CC[C@]4(C)[C@H]3CC[C@]12C` [Example 453], in experiment [1], the EC50 lay in the range of 200 to 1000 nM and the “α1β2γ2 EMAX” value is “A (A indicates an Emax response <8)”. In experiment [2], the IC50 is under 100 nM. Moreover, in experiment [3], the EC50 was under 200 nM and the “α4β3δ EMAX” value is listed as “A (A indicates an Emax response <30)”.
For `CCOC[C@@]1(O)CC[C@H]2[C@H](CC[C@@H]3[C@@H]2CC[C@]2(C)[C@@H]([C@H](CC)Cn4ccc(C#N)n4)CC[C@@H]32)C1` [Example 499, 1-((S)-2-((3R,5R,8R,9R,10S,13S,14S,17R)-3-(ethoxymethyl)-3-hydroxy-13-methylhexadecahydro-1H-cyclopenta[a]phenanthren-17-yl)butyl)-1H-pyrazole-3-carbonitrile], in that order: under 200 nM, “A (A indicates an Emax response <8)”, under 100 nM, under 200 nM and “A (A indicates an Emax response <30)”.

Values taken from US20230322846A9, “NEUROACTIVE STEROIDS AND THEIR METHODS OF USE” (SAGE THERAPEUTICS, INC., priority 2018, published 2023).
